Results on twelve compounds are retold here after ChEMBL document CHEMBL1136677, “Dermorphin tetrapeptide analogues with 2',6'-dimethylphenylalanine (Dmp) substituted for aromatic amino acids have high mu opioid receptor binding and biological activities” (Bioorg Med Chem Lett, 2003).

Assay [1] has as its target Delta-type opioid receptor (Rattus norvegicus) (UniProt P33533). The experiment in a line: (§1) Selectivity ratio of binding affinity of delta opioid receptor to mu opioid receptor.
Assay [2] has as its target Delta-type opioid receptor (Mus musculus) (UniProt P32300). The experiment in a line: Selectivity ratio of IC50(MVD) to IC50(GPI) was determined.
Assay [3] concerns the target Mu-type opioid receptor (Rattus norvegicus, UniProt P33535). Description: Ability to displace [3H]DAMGO from mu opioid receptor.
The target of assay [4] is Delta-type opioid receptor (Rattus norvegicus, UniProt P33533). The experiment in a line: Ability to displace [3H]-deltorphin II from delta opioid receptor.
The target in assay [5] is Delta-type opioid receptor (Mus musculus, UniProt P32300). Description: Ability to inhibit electrically induced contractions of mouse vas deferens having delta opioid receptors tested in vitro. In kind it is tissue-based.
Assay [6] has as its target Mu-type opioid receptor (Cavia porcellus, UniProt P97266). The experiment in a line: Ability to inhibit electrically induced contractions of guinea pig ileum having mu opioid receptors tested in vitro. The assay is classed as tissue-based.
Assay [7] concerns the target Delta-type opioid receptor (Mus musculus) (UniProt P32300). The settings on record: Vas deferens.
Description: Affinity towards delta opioid receptor using CTAP as antagonist in mouse vas deferens
For assay [8] the target is unchanged. The following applies: Vas deferens. This is another data set of the same source.
Description: Affinity towards delta opioid receptor using N,N(Me)2Dmt-Tic-OH as antagonist in mouse vas deferens
In assay [9] the target is Mu-type opioid receptor (Cavia porcellus) (UniProt P97266). The experiment in a line: Affinity towards mu opioid receptor using CTAP as antagonist in guinea pig ileum. The assay is classed as functional, tissue-based.
Assay [10] deals with Mus musculus. The experiment in a line: Antinociceptive activity in mice after subcutaneous injection in the second phase of formalin test. The assay is classed as functional. The following applies: sc.
In assay [11] the test system is Mus musculus. Description: Antinociceptive activity in mice after subcutaneous injection in the first phase of formalin test. In kind it is functional. The settings on record: sc.
Assay [12] deals with Prothrombin (Homo sapiens) (UniProt P00734). The assay is described as §1.

Chain of Delta-type opioid receptor (Rattus norvegicus, UniProt P33533) (P33533 whole entry): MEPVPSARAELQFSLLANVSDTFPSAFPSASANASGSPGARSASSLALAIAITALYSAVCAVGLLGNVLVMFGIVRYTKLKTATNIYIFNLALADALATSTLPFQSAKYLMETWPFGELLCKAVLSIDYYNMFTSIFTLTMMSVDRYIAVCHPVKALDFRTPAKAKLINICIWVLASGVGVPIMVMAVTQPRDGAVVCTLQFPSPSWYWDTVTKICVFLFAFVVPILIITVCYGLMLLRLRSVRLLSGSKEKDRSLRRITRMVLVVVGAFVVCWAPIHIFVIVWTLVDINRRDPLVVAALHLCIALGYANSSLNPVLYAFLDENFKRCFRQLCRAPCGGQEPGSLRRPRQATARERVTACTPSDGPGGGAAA
Chain of Delta-type opioid receptor (Rattus norvegicus) (P33533 whole entry): as above
Chain of Delta-type opioid receptor (Mus musculus) (P32300 whole entry): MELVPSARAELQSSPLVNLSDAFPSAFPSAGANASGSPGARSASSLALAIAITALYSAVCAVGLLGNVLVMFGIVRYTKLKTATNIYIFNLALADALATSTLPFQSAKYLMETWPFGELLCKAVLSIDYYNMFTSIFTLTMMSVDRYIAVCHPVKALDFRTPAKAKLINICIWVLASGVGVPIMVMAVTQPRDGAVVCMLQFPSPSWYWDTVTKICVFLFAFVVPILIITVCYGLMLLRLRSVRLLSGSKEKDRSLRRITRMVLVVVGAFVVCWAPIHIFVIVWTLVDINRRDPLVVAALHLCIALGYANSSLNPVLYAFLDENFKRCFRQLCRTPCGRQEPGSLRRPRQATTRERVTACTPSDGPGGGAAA
Chain of Delta-type opioid receptor (Mus musculus, UniProt P32300) (P32300 whole entry): as above
Chain of Mu-type opioid receptor (Cavia porcellus, UniProt P97266) (P97266 whole entry): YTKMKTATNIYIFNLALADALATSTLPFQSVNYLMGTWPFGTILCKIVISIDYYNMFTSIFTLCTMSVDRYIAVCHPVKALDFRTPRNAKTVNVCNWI
Chain of Mu-type opioid receptor (Cavia porcellus) (P97266 whole entry): as above
Chain of Mu-type opioid receptor (Rattus norvegicus, UniProt P33535) (P33535 whole entry): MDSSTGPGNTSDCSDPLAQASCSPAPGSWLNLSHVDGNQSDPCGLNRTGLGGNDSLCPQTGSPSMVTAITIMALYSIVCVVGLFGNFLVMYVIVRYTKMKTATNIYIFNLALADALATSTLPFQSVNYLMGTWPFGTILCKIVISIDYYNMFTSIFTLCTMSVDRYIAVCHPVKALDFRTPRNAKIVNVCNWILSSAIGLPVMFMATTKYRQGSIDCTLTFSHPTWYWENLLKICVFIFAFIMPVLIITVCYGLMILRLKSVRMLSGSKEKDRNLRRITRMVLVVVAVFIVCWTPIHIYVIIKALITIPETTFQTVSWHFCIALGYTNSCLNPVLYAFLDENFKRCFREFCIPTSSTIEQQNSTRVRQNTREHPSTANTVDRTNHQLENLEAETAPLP

As for `Cc1cccc(C)c1C[C@@H](N)C(=O)N[C@H](CCCN=C(N)N)C(=O)N[C@@H](Cc1ccccc1)C(=O)NCCC(N)=O`, the Ratio in assay [1] is > 370; in assay [2] it was 4.6.
For orientation: Ki means the dissociation constant of the complex between target and ligand, obtained from inhibition or displacement. A higher Ki goes with a looser hold on the target. By IC50 is commonly meant the concentration that inhibits the measured activity by half. For the compound `NC(=O)CCNC(=O)[C@H](Cc1ccccc1)NC(=O)[C@@H](CCCN=C(N)N)NC(=O)[C@@H](N)Cc1ccccc1`, the figures for the Ki (on Mu-type opioid receptor [3]; in assay [4]) were 7.17 nM and > 2820 nM, respectively. The IC50 in [5] came out at 7140 nM; at Mu-type opioid receptor [6], 633 nM. Also, the Ratio in assay [1] is > 393; in [2] it was 11.2.
With `CC(C)[C@H](NC(=O)[C@H](CCC(=O)O)NC(=O)[C@H](Cc1ccccc1)NC(=O)[C@H](C)NC(=O)[C@@H](N)Cc1ccc(O)cc1)C(=O)N[C@H](C(=O)NCC(=O)O)C(C)C`, the Ke in assay [7] is > 1000 nM; in assay [8], 0.64 nM.
On to `Cc1cc(O)cc(C)c1C[C@H](N)C(=O)N[C@H](CCCN=C(N)N)C(=O)N[C@@H](Cc1ccccc1)C(=O)NCCC(N)=O`, for which the Ki at Mu-type opioid receptor [3] came out at 0.00205 nM; in assay [4], 1.13 nM. Besides, the IC50 came out at 0.398 nM in assay [5] and 0.034 nM at Mu-type opioid receptor [6]. The Ratio in [1] came to 551; in assay [2], 11.7.
In general, ED50 refers to the midpoint of the dose-response relation. The low end stands for greater potency, the high end for weaker potency. With `Cc1cccc(C)c1C[C@H](NC(=O)[C@@H](CCCN=C(N)N)NC(=O)[C@@H](N)Cc1ccc(O)cc1)C(=O)NCCC(N)=O`, the Ki at Mu-type opioid receptor [3] is 0.035 nM; in assay [4] it was 544 nM. The Ke is 11.4 nM in [7], 22.7 nM in assay [9] and > 1000 nM in [8]. Also, the ED50 in the assay with Mus musculus [10] was determined as 0.113 µmol/kg; with Mus musculus [11], 0.0986 µmol/kg. The IC50 in assay [5] stood at 27.9 nM; at Mu-type opioid receptor [6], 1.67 nM. For the same compound, the figures for the Ratio in [12] and in [2] were 15500 and 16.7, respectively.
In the case of `Cc1cccc(C)c1C[C@H](N)C(=O)N[C@H](CCCN=C(N)N)C(=O)N[C@@H](Cc1ccccc1)C(=O)NCCC(N)=O`, the Ki came to 0.0623 nM on Mu-type opioid receptor [3] and 2570 nM in assay [4]. The Ke in assay [7] was 13.4 nM; in assay [9] it was 25.1 nM; in assay [8], > 1000 nM. Moreover, the results for the ED50 with Mus musculus [10] and in the assay with Mus musculus [11] were 1.53 µmol/kg and 1.95 µmol/kg, respectively. Also, the results for the IC50 (in assay [5]; on Mu-type opioid receptor [6]) were 188 nM and 9.88 nM, respectively. Also, the Ratio stood at 41300 in assay [1] and 19 in [2].
On to `CN1CC[C@]23c4c5ccc(O)c4O[C@H]2[C@@H](O)C=C[C@H]3[C@H]1C5` [MORPHINE], for which the ED50 in the assay with Mus musculus [10] is 7.32 µmol/kg; with Mus musculus [11] it was 3.81 µmol/kg.
With `Cc1cccc(C)c1C[C@@H](N)C(=O)N[C@H](CCCNC(=N)N)C(=O)N[C@@H](Cc1ccccc1)C(=O)NCCC(N)=O`, the Ki on Mu-type opioid receptor [3] is 7.62 nM; in assay [4], > 2820 nM. Moreover, the IC50 in assay [5] is 1470 nM; against Mu-type opioid receptor [6], 320 nM.
With `NC(=O)CCNC(=O)[C@H](Cc1ccccc1)NC(=O)[C@@H](CCCN=C(N)N)NC(=O)[C@@H](N)Cc1ccc(O)cc1`, the Ke is 21.2 nM in [7], 26.8 nM in [9] and > 1000 nM in [8]. Further, the ED50 in the assay on Mus musculus [10] was 0.514 µmol/kg; with Mus musculus [11] it was 0.628 µmol/kg. Further, the Ratio in [1] was determined as 2800; in assay [2], 21.8.
For `Cc1cccc(C)c1C[C@@H](NC(=O)[C@@H](CCCN=C(N)N)NC(=O)[C@@H](N)Cc1ccc(O)cc1)C(=O)NCCC(N)=O`, the Ki at Mu-type opioid receptor [3] is 0.0618 nM; in assay [4], > 2820 nM. Also, the IC50 in assay [5] was 305 nM; at Mu-type opioid receptor [6] it was 19.8 nM. For the same compound, the Ratio in assay [1] is > 45700; in assay [2], 15.4.
For the compound `Cc1cccc(C)c1C[C@H](NC(=O)[C@@H](CCCN=C(N)N)NC(=O)[C@@H](N)Cc1c(C)cccc1C)C(=O)NCCC(N)=O`, the Ki on Mu-type opioid receptor [3] was 0.0216 nM; in [4], 1690 nM. The Ke in assay [7] is 10.2 nM; in assay [9] it was 21.3 nM; in [8], > 1000 nM. Besides, the values for the IC50 (in [5]; against Mu-type opioid receptor [6]) were 50.1 nM and 2.76 nM, respectively. Further, the Ratio in [1] was found to be 78100; in [2], 18.2.
`N=C(N)NCCC[C@@H](NC(=O)[C@@H](N)Cc1ccc(O)cc1)C(=O)N[C@@H](Cc1ccccc1)C(=O)NCCC(N)=O`: the results for the Ki (at Mu-type opioid receptor [3]; in assay [4]) were 0.172 nM and 482 nM, respectively. Besides, the figures for the IC50 (in assay [5]; against Mu-type opioid receptor [6]) were 116 nM and 5.31 nM, respectively.
